Laboratory results as given in patent US11478460B2, “Diaryl substituted 6,5-fused ring compounds as C5aR inhibitors” (CHEMOCENTRYX, INC., priority 2017, dated 2022).

What follows are molecules tested against C5aR (Homo sapiens (Human), UniProt P21730) (assay: Chemotaxis assay using U937 cells (C5aR mediated migration)). Conditions: read-out: Mig IC50.
Format: cell-based
Procedure, shortened: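 Migration toward 0.03 nM C5a, mixed with varying compound in the lower chamber (HBSS with 1% FBS), was measured over 1.5 h at 37° C through 5 μm filters. Upper chamber held 100,000 U937 cells treated overnight with 0.5 mM cAMP; migrated cells quantified by counts or CyQuant for IC50, SDF-1α as specificity control.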

Chain of C5aR (P21730 whole entry): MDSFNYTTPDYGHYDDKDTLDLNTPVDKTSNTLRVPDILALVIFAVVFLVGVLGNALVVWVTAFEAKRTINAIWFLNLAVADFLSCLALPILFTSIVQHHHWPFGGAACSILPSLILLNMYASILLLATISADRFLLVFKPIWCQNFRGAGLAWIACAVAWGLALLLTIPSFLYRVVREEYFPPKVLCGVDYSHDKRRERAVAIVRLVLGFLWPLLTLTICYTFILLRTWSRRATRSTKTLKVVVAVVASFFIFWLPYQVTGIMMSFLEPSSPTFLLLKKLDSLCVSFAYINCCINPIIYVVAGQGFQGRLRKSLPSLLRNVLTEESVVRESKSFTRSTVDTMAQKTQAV

SMILES	IC50 [nM]
Cc1ccc(C(C)(C)C)cc1N1CCc2nn(-c3c(C)cccc3C)c(-c3ccc(OC(C)C)cc3)c2C1 [Example 1.446]	> 500
COc1cccc(C)c1-n1nc2c(c1-c1ccc(NC(N)=O)nc1)CN(c1ccccc1C(C)C)CC2 [Example 1.447]	50 to 500
Cc1cccc(OCC(C)C)c1-n1nc2c(c1-c1ccc(C(C)(C)O)cc1)CN(c1ccccc1C(C)(C)C)CC2 [Example 1.449]	> 500
Cc1cccc(OCC(C)C)c1-n1nc2c(c1-c1ccc(CO)cc1)CN(c1ccccc1C(C)(C)C)CC2 [Example 1.450]	50 to 500
COc1cccc(F)c1-n1nc2c(c1-c1ccc(NC(N)=O)cc1)CN(c1cc(C(C)(C)C)ccc1C)CC2 [Example 1.451]	50 to 500
Cc1cccc(F)c1-n1nc2c(c1-c1ccc(NC(N)=O)cc1)CN(c1ccccc1C(C)C)CC2 [Example 1.461]	50 to 500
Cc1cccc(F)c1-n1nc2c(c1-c1ccc(N)cc1)CN(c1ccccc1C(C)C)CC2 [Example 1.464]	50 to 500
Cc1cccc(C)c1-n1nc2c(c1-c1ccc(CO)cc1)CN(c1ccccc1C(C)C)CC2 [Example 1.467]	50 to 500
Cc1cc(N)ccc1-c1c2c(nn1-c1c(C)cccc1C)CCN(c1ccccc1C(C)C)C2 [Example 1.468]	50 to 500
COc1cccc(C)c1-n1nc2c(c1-c1ccc(N)cc1)CN(c1cc(C(C)(C)C)ccc1C)CC2 [Example 1.469]	50 to 500
Cc1cccc(C)c1-n1nc2c(c1-c1ccc(N)cc1)CN(c1ccccc1C(C)(C)C)CC2 [Example 1.471]	5 to 50
COc1ccc(-c2c3c(nn2-c2c(C)cccc2C)CCN(c2cc(C(C)(C)C)ccc2C)C3)cc1 [Example 1.472]	50 to 500
CCOc1cccc(C)c1-n1nc2c(c1-c1ccc(NC(N)=O)cc1)CN(c1ccccc1C(C)C)CC2 [Example 1.475]	5 to 50
CCNc1ccc(-c2c3c(nn2-c2c(C)cccc2OC)CCN(c2ccccc2C(C)C)C3)cc1 [Example 1.476]	5 to 50
Cc1cccc(C)c1-n1nc2c(c1-c1ccc(NC(C)C)cc1)CN(c1ccccc1C(C)C)CC2 [Example 1.477]	50 to 500
Cc1cccc(C)c1-n1nc2c(c1-c1ccc(NC(N)=O)cc1)CN(c1ccccc1C(C)C)CC2 [Example 1.478]	50 to 500
CCOc1cccc(C)c1-n1nc2c(c1-c1ccc(N)cc1)CN(c1ccccc1C(C)C)CC2 [Example 1.479]	50 to 500
Cc1cccc(OCC(C)C)c1-n1nc2c(c1-c1ccc(N)cc1)CN(c1ccccc1C(C)C)CC2 [Example 1.480]	5 to 50
Cc1cccc(C)c1-n1nc2c(c1-c1ccc(N)cc1)CN(c1ccccc1C(C)C)CC2 [Example 1.481]	5 to 50
COc1cccc(C)c1-n1nc2c(c1-c1ccc(NC(N)=O)cc1)CN(c1ccccc1C(C)C)CC2 [Example 1.482]	5 to 50
COc1cccc(C)c1-n1nc2c(c1-c1ccc(NC(C)=O)cc1)CN(c1ccccc1C(C)C)CC2 [Example 1.483]	> 500
COc1cccc(C)c1-n1nc2c(c1-c1ccc(NC(N)=O)cc1)CN(c1ccccc1C)CC2 [Example 1.484]	50 to 500
COc1cccc(C)c1-n1nc2c(c1-c1ccc(NC(C)C)cc1)CN(c1ccccc1C(C)C)CC2 [Example 1.485]	50 to 500
COc1cccc(C)c1-n1nc2c(c1-c1ccc(N)cc1)CN(c1ccccc1C(C)C)CC2 [Example 1.486]	50 to 500
COc1cccc(C)c1-n1nc2c(c1-c1ccc(N(C)C)cc1)CN(c1ccccc1C)CC2 [Example 1.487]	> 500
COc1cccc(C)c1-n1nc2c(c1-c1ccc(NC(=O)NC(C)(C)C)cc1)CN(c1ccccc1C)CC2 [Example 1.488]	> 500
COc1cccc(C)c1-n1nc2c(c1-c1ccc(NC(C)C)cc1)CN(c1ccccc1C)CC2 [Example 1.489]	> 500
COc1cccc(C)c1-n1nc2c(c1-c1ccc(NC3CCCC3)cc1)CN(c1ccccc1C)CC2 [Example 1.490]	> 500
COc1cccc(C)c1-n1nc2c(c1-c1ccc(N)cc1)CN(c1ccccc1C)CC2 [Example 1.491]	50 to 500

Continued, values first:

IC50 [nM]	SMILES
5 to 50	Cc1ccc(C(C)(C)C)cc1N1CCc2nn(-c3c(C)cccc3C)c(-c3ccc(O)cc3)c2C1 [Example 1.452]
5 to 50	Cc1cccc(OCC(C)C)c1-n1nc2c(c1-c1ccc(C(N)=O)cc1)CN(c1ccccc1C(C)(C)C)CC2 [Example 1.453]
≤ 5	Cc1cccc(OCC(C)C)c1-n1nc2c(c1-c1ccc(NC(N)=O)cc1)CN(c1ccccc1C(C)(C)C)CC2 [Example 1.454]
5 to 50	Cc1cccc(OCC(C)C)c1-n1nc2c(c1-c1ccc(N)cc1)CN(c1ccccc1C(C)(C)C)CC2 [Example 1.455]
5 to 50	COc1cccc(C)c1-n1nc2c(c1-c1ccc(NC(N)=O)cc1)CN(c1ccccc1C(C)(C)C)CC2 [Example 1.456]
≤ 5	Cc1ccc(C(C)(C)C)cc1N1CCc2nn(-c3c(C)cccc3OCC(C)C)c(-c3ccc(NC(N)=O)cc3)c2C1 [Example 1.457]
5 to 50	Cc1ccc(C(C)(C)C)cc1N1CCc2nn(-c3c(C)cccc3OCC(C)C)c(-c3ccc(N)cc3)c2C1 [Example 1.458]
5 to 50	COc1cccc(C)c1-n1nc2c(c1-c1ccc(N)cc1)CN(c1ccccc1C(C)(C)C)CC2 [Example 1.459]
≤ 5	Cc1cccc(OC(C)C)c1-n1nc2c(c1-c1ccc(NC(N)=O)cc1)CN(c1ccccc1C(C)C)CC2 [Example 1.460]
5 to 50	COc1cccc(C)c1-n1nc2c(c1-c1ccc(NC(N)=O)cc1)CN(c1cc(C(C)(C)C)ccc1C)CC2 [Example 1.462]
≤ 5	Cc1cc(NC(N)=O)ccc1-c1c2c(nn1-c1c(C)cccc1C)CCN(c1ccccc1C(C)C)C2 [Example 1.463]
5 to 50	Cc1cccc(OC(C)C)c1-n1nc2c(c1-c1ccc(N)cc1)CN(c1ccccc1C(C)C)CC2 [Example 1.465]
5 to 50	Cc1cccc(C)c1-n1nc2c(c1-c1ccc(C(N)=O)cc1)CN(c1ccccc1C(C)C)CC2 [Example 1.470]
≤ 5	Cc1cccc(OCC(C)C)c1-n1nc2c(c1-c1ccc(NC(N)=O)cc1)CN(c1ccccc1C(C)C)CC2 [Example 1.474]
